Data: patent US11952365B2, “Anti-viral compounds” (Aligos Therapeutics, Inc., priority 2020, dated 2024)
Like-named read-outs stand apart in the source and are kept apart here.

Assays:
human cathepsin L = target: T1, human cathepsin L (Homo sapiens, UniProt P07711); assay: cathepsin L assay; assay type: biochemical; settings: 10 pM human cathepsin L, Z-FR-AMC 2 μM, class symbols
T1 construct: purchased R&D Systems
How it was run: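 Reactions began by adding 2 μM (final) Z-FR-AMC substrate to 10 pM human cathepsin L that had been preincubated 30 min with inhibitor. Kinetic AMC fluorescence at 355/460 nm over 30 min at 2-min intervals; four-parameter fitting gave IC50 values.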

[1] = test system: SARS-CoV-2-GHB-03021/2020; assay: SARS-CoV-2 Infection Model in Huh7 Cells; assay type: cell-based; settings: Severe acute respiratory syndrome coronavirus 2, Huh-7, 96 h, SARS-CoV-2, day 4 p.i., MTS, class symbols
in vitro [2] = settings: human
[3] = Cytotoxicity plates without OC43 virus (cell-titer-glo); assay type: cell-based, human; settings: human; HeLa cells without OC43 virus, class symbols
How it was run: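 Run as a virus-free counterpart of the OC43 cytopathic-effect assay. Attached HeLa cells received compound dilutions in EMEM with 2% FBS and were kept 6 days at 33 °C. Cell viability was then measured by CellTiter-Glo luminescence.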

HRV3C = HRV3C (Human rhinovirus 14, UniProt P03303); assay: HRV3C protease assay (duplex, SAMDI-MS); assay type: biochemical, HRV; settings: 30 mins preincubation
How it was run: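 Readout is SAMDI mass spectrometry: biotinylated substrates, products and internal standards were immobilized on neutravidin monolayers and product formation taken as the AUC ratio to internal standard. Reactions ran 30 min at ambient temperature after 30 min compound preincubation, in duplex with 3CLpro. IC50 values came from four-parameter curve fitting.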

3CLpro = 3CLpro (Severe acute respiratory syndrome coronavirus 2, UniProt P0DTD1); assay: SARS-CoV-2 3CLpro protease assay (duplex, SAMDI-MS); assay type: biochemical; parameters: For the duplex assay, 3CLpro and HRV3C was added; settings: 3CLpro, 30 mins preincubation, class symbols; read-out: SARS-Cov-2 IC50
in vitro [4] = settings: African green monkey, VeroE6 + CP (CC50), Vero E6-eGFP cells with CP-100356, absence of virus, MTS
[5] = test system: SARS-CoV-2-GHB-03021/2020; assay: microbe, parasite or virus in culture; assay type: cell-based; settings: Severe acute respiratory syndrome coronavirus 2, Vero C1008, 96 h; read-out: VeroE6 + CP (EC50)
[6] = test system: human beta-coronavirus OC43; assay: microbe, parasite or virus in culture; assay type: cell-based
[7] = HRV3C, class symbols, read-out: HRV IC50
[8] = Betacoronavirus 1, OC43, HeLa, 144 h, OC43 in HeLa cells, 6 days at 33° C., class symbols, read-out: EC50
[9] = HRV3C, bound, read-out: HRV IC50
[10] = Betacoronavirus 1, OC43, HeLa, 144 h

SMILES	IC50 (human cathepsin L) [nM]	EC50 [1] [nM]	CC50 (in vitro [2]) [nM]	CC50 at 6 days [3] [nM]	IC50 (HRV3C; [7]) [nM]	IC50 (3CLpro) [nM]	CC50 (in vitro [4]; numeric bounds) [nM]	EC50 [5] [nM]	EC50 [6, 8] [nM]	CC50 (in vitro [4]; class symbols) [nM]	EC50 ([6]; OC43 in HeLa cells, 6 days at 33° C., class symbols, read-out: EC50) [nM]	IC50 (HRV3C; [9]) [nM]	IC50 (HRV3C; HRV IC50, HRV3C, class symbols) [nM]	EC50 [6, 10] [nM]	IC50 (HRV3C; HRV IC50, HRV3C, bound) [nM]
O=C(NC1CC1)C(=O)[C@H](C[C@@H]1CCNC1=O)NC(=O)[C@@H]1CC2(CCN1C(=O)c1cc3ccccc3s1)CC2 [Compound 165]	1000 to 10000	< 1000	> 10000	> 10000	200 to 2000	20 to 200	> 50000	< 1000	100 to 1000						
COc1ccc(F)c2[nH]c(C(=O)N3C[C@@H]4CCC[C@@H]4[C@H]3C(=O)N[C@@H](C[C@@H]3CCNC3=O)C(=O)CO)cc12 [Compound 65, (1S,3aR,6aS)-2-(7-fluoro-4-methoxy-1H-indole-2-carbonyl)-N-[(2S)-4-hydroxy-3-oxo-1-[(3S)-2-oxopyrrolidin-3-yl]butan-2-yl]-hexahydro-1H-cyclopenta[c]pyrrole-1-carboxamide]	≥ 10000	< 1000	> 100000	> 10000	200 to 2000	< 20		< 1000	100 to 1000	> 10000					
O=C(NC1CC1)C(=O)C(CC1CC2(CC2)NC1=O)NC(=O)[C@@H]1[C@H]2CCC[C@H]2CN1C(=O)c1cc2c(Cl)cc(Cl)cc2[nH]1 (single isomer, unassigned) [Compound 116A, (1S,3aR,6aS)—N-(4-(cyclopropylamino)-3,4-dioxo-1-((R*)-5-oxo-4-azaspiro[2.4]heptan-6-yl)butan-2-yl)-2-(4,6-dichloro-1H-indole-2-carbonyl)octahydrocyclopenta[c]pyrrole-1-carboxamide]	≥ 10000	< 1000	> 10000	> 10000	200 to 2000	20 to 200	> 50000	1000 to 10000			100 to 1000				
COc1cccc2[nH]c(C(=O)N3C[C@H](C(F)(F)F)C[C@H]3C(=O)N[C@@H](C[C@@H]3CCCNC3=O)C(=O)COCc3ccccc3)cc12 [Compound 45A]	≥ 10000	1000 to 10000	> 10000	> 10000	2000 to 20000	20 to 200		1000 to 10000	100 to 1000	> 10000					
CC[C@@H]1C[C@@H](C(=O)N[C@@H](C[C@@H]2CCNC2=O)C(=O)C(=O)NCc2ccccc2)N(C(=O)c2cc3ccccc3[nH]2)C1 [Compound 28]	< 100	< 1000	> 10000	> 10000	2000 to 20000	200 to 2000	> 100000	1000 to 10000	100 to 1000						
O=C1NCC[C@H]1C[C@H](NC(=O)[C@@H]1[C@H]2CCC[C@H]2CN1C(=O)c1cc2c(OC(F)(F)F)cccc2[nH]1)C(=O)CO [Compound 64, (1S,3aR,6aS)—N-[(2S)-4-hydroxy-3-oxo-1-[(3S)-2-oxopyrrolidin-3-yl]butan-2-yl]-2-[4-(trifluoromethoxy)-1H-indole-2-carbonyl]-hexahydro-1H-cyclopenta[c]pyrrole-1-carboxamide]	≥ 10000	< 1000	> 10000	> 10000		20 to 200		< 1000	< 100	> 10000		> 10000			
COc1cccc2[nH]c(C(=O)N3C[C@@H]4CCC[C@@H]4[C@H]3C(=O)N[C@@H](C[C@@H]3CCNC3=O)C(=O)C(=O)NCCOc3ccccc3)cc12 [Compound 134]	≥ 10000	1000 to 10000	> 50000	> 10000	2000 to 20000	< 20	> 50000	1000 to 10000	100 to 1000						
O=C1NCC[C@H]1C[C@H](NC(=O)[C@@H]1[C@H]2CCC[C@H]2CN1C(=O)c1cc2c(OCc3ccccc3)cccc2[nH]1)C(=O)CO [Compound 133, (1S,3aR,6aS)-2-[4-(benzyloxy)-1H-indole-2-carbonyl]-N-[(2S)-4-hydroxy-3-oxo-1-[(3S)-2-oxopyrrolidin-3-yl]butan-2-yl]-hexahydro-1H-cyclopenta[c]pyrrole-1-carboxamide]	≥ 10000	< 1000	> 50000	> 10000		< 20	> 50000	< 1000	< 100			> 10000			
CC(C)COCCNC(=O)C(=O)[C@H](C[C@@H]1CCNC1=O)NC(=O)[C@@H]1[C@H]2CCC[C@H]2CN1C(=O)c1cc2c(Cl)cc(Cl)cc2[nH]1 [Compound 149, (1S,3aR,6aS)-2-(4,6-dichloro-1H-indole-2-carbonyl)-N—((S)-4-((2-isobutoxyethyl)amino)-3,4-dioxo-1-((S)-2-oxopyrrolidin-3-yl)butan-2-yl)octahydrocyclopenta[c]pyrrole-1-carboxamide]	1000 to 10000	< 1000	1000 to 10000	> 10000		20 to 200		< 1000		> 10000			2000 to 20000	100 to 1000	
O=C1NCC[C@H]1C[C@H](NC(=O)[C@@H]1[C@H]2CCC[C@H]2CN1C(=O)c1nc2c(Cl)ccc(Cl)c2[nH]1)C(=O)CO [Compound 139, (1S,3aR,6aS)-2-(4,7-dichloro-1H-1,3-benzodiazole-2-carbonyl)-N-[(2S)-4-hydroxy-3-oxo-1-[(3S)-2-oxopyrrolidin-3-yl]butan-2-yl]-hexahydro-1H-cyclopenta[c]pyrrole-1-carboxamide]	≥ 10000	< 1000	> 50000	> 10000		< 20	> 50000	< 1000						100 to 1000	> 10000
CC(=O)c1c[nH]c(C(=O)N2C[C@@H]3CCC[C@@H]3[C@H]2C(=O)N[C@@H](C[C@@H]2CCNC2=O)C(=O)CO)c1 [Compound 86, (1S,3aR,6aS)-2-(4-acetyl-1H-pyrrole-2-carbonyl)-N-[(2S)-4-hydroxy-3-oxo-1-[(3S)-2-oxopyrrolidin-3-yl]butan-2-yl]-hexahydro-1H-cyclopenta[c]pyrrole-1-carboxamide]	≥ 10000	10000 to 100000	> 50000	> 10000	2000 to 20000	20 to 200	> 50000	10000 to 100000	1000 to 10000						
O=C1NCC[C@H]1C[C@H](NC(=O)[C@@H]1[C@@H]2[C@H](CN1C(=O)c1cc3c(Cl)cc(Cl)cc3[nH]1)[C@@H]1C=C[C@H]2C1)C(=O)CO [Compound 136, (1R,2S,3S,6R,7S)-4-(4,6-dichloro-1H-indole-2-carbonyl)-N-[(2S)-4-hydroxy-3-oxo-1-[(3S)-2-oxopyrrolidin-3-yl]butan-2-yl]-4-azatricyclo[5.2.1.0^{2,6}]dec-8-ene-3-carboxamide]	≥ 10000	< 1000	> 50000	> 10000	2000 to 20000	< 20	> 50000	< 1000	< 100						
